Experimental findings from PubChem BioAssay AID602217 (Sanford-Burnham Center for Chemical Genomics, 2012) are described below.

Structures are written as SMILES. Calls of active or inactive are those of the source.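 How the source made its calls: active means IC50 at or below a set limit; inactive means the rest.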

This assay concerns HL-1 cardiomyocytes, 2-deoxyglucose injury, ATPLite luminescence, 2 h. Briefly: 2-DG-induced HL-1 ATP loss suppression – cell-based, ATPLite luminescence, dose response (AID 602217).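 Further: cells kept in glucose-free DMEM during the 2-deoxyglucose injury; potency of protection where actives preserve ATP signal against 2-deoxyglucose stress.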
With `COc1ccc2c(c1OC)C(=O)N1c3ccccc3C(=O)N(c3ccccc3)C21` (stereo unspecified), the IC50 was 11 µM. Consider `COc1ccc(-c2csc(NC(=O)c3ccc(OCC(=O)N4CCOCC4)c(OC)c3)n2)cc1OC`, for which the IC50 was > 79 µM (inactive). `C=CC[C@@H](CC(=O)NCCO)C(=O)NC[C@H](OC(=O)[C@@H](CC=C)Cc1ccc(F)cc1)c1ccccc1`: the IC50 is 42.7 µM (inactive). Regarding `O=C1OCCN1C(=O)[C@H]1[C@H](c2ccc([N+](=O)[O-])cc2)C(c2ccc(F)cc2)=NN1c1ccc(Br)cc1`, the IC50 is > 79 µM (inactive).

Regarding `COc1nc(N/N=C/c2cc3c(cc2Br)OCO3)nc(N2CCOCC2)n1`, the IC50 was > 79 µM (inactive). Consider `COc1ccc(-c2cc(C(=O)N(C)Cc3ccc(OC)c(OC)c3OC)c3ccccc3n2)cc1OC`, for which the IC50 is 32.1 µM (inactive). `COc1ccc(-c2ccc3c(c2)S(=O)(=O)c2cccc(C(=O)NC[C@@H]4CCCO4)c2C3=O)cc1OC`: the IC50 is > 79 µM (inactive). With `COc1cc(OC)cc(C(=O)Nc2ccc(C(=O)Nc3ccccc3OC)cc2)c1`, the IC50 is > 79 µM (inactive). Consider `CC(=O)c1ccc(-c2cnc3c(NC=O)cc(-c4cccc(C(=O)N(C)C)c4)cn23)cc1`, for which the IC50 is > 79 µM (inactive). For the compound `COc1cccc(Nc2nc3ccccc3n3cnnc23)c1`, the IC50 was > 79 µM (inactive). For the compound `COc1ccc(-c2cc3nc(-c4ccccc4)cc(N4CCN(C(C)=O)CC4)n3n2)cc1`, the IC50 is 43.7 µM (inactive). In the case of `CC1(c2ccccc2)NC(=O)N(CC(=O)Nc2cccc(/C=C/c3ccccn3)c2)C1=O` (stereo unspecified), the IC50 was > 79 µM (inactive). As for `COC(=O)c1[nH]c2ccccc2c1NC(=O)CNC1CCCCC1`, the IC50 was 41 µM (inactive). `COc1cc(C(=O)Nc2nc(-c3cccs3)cs2)cc(OC)c1OC`: the IC50 was 16.9 µM. Turning to `O=C(N/N=C/c1ccccn1)c1cc(-c2cccc3ccccc23)n[nH]1`, the IC50 was 2.9 µM. Turning to `COc1ccccc1CN(C(=O)CNC(=O)c1ccco1)C(C(=O)NCC1CCCO1)c1ccccc1` (stereo unspecified), the IC50 was 71.3 µM (inactive). Turning to `O=C(Nc1cccc(NC(=O)c2ccc([N+](=O)[O-])o2)c1)c1ccco1`, the IC50 was > 79 µM (inactive). On to `COc1cc(OC)cc(-c2cc3nc(C)c(CCC(=O)Nc4nc(C)cs4)c(C)n3n2)c1`, for which the IC50 is > 79 µM (inactive).

Turning to `N#C/C(=C\Nc1ccc2c(c1)OCCO2)c1nc2ccccc2[nH]1`, the IC50 was > 79 µM (inactive). `CCc1nc2ccc(C(=O)Nc3cc(-c4ccccc4)ccc3OC)cn2c1N(C)Cc1nccs1`: the IC50 was > 79 µM (inactive).

Regarding `Brc1cc2c(cc1/C=N/Nc1nc(N3CCCC3)nc(N3CCOCC3)n1)OCO2`, the IC50 was > 79 µM (inactive).

On to `COc1cc(C(=O)N/N=C/c2sc(N3CCOCC3)nc2-c2ccccc2)cc(OC)c1OC`, for which the IC50 is 22.6 µM (inactive). As for `COc1cc(/C=N/NC(=O)c2ccccc2)ccc1OS(=O)(=O)c1ccccc1`, the IC50 is > 79 µM (inactive). Regarding `CC(C)(C)OC(=O)N1CCC(NC(=O)c2nc[nH]c2C(=O)NCC(=O)OCc2ccccc2)CC1`, the IC50 is 25.8 µM (inactive).

`COc1cc(-c2cc(NC(C)=O)c3ncc(-c4cc(OC)c(OC)c(OC)c4)n3c2)cc(OC)c1OC`: the IC50 is 6.4 µM.

With `COc1ccc(C(C(=O)NC2CCCC2)N(C(=O)c2snc(C(N)=O)c2N)c2cccc(O)c2)cc1` (stereo unspecified), the IC50 was 40.9 µM (inactive).

With `O=C(Nc1cc(S(=O)(=O)N2CCOCC2)ccc1N1CCCCC1)c1cc(-c2ccccn2)nc2ccccc12`, the IC50 was 21 µM (inactive). Turning to `COc1cc(CN2C[C@@H](CO)O[C@@H](n3cnc4c(Nc5ccccc5)ncnc43)C2)cc(OC)c1OC`, the IC50 was > 79 µM (inactive). Then `CCOC(=O)C1CCN(c2cc3c(cc2NC(=O)c2ccccc2Cl)n(C)c(=O)n3C)CC1`, with > 79 µM (inactive); and `Cn1c(=O)c2[nH]c(NN=Cc3ccc(Br)cc3)nc2n(C)c1=O`, with 10.2 µM.

With `COc1cccc(-c2cnc3c(NC=O)cc(-c4cc(C)c(O)c(C)c4)cn23)c1`, the IC50 was > 79 µM (inactive). Consider `COc1cc(Nc2nc3ccccc3n3nnnc23)cc(OC)c1OC`, for which the IC50 is > 79 µM (inactive). Consider `O=C(COC(=O)c1c2c(nc3ccccc13)/C(=C/c1cccc([N+](=O)[O-])c1)CCC2)NC1CCS(=O)(=O)C1` (stereo unspecified), for which the IC50 was > 79 µM (inactive). With `COc1cccc(-c2cnc3c(NC=O)cc(-c4ccc(O)c(OC)c4)cn23)c1`, the IC50 is 27.4 µM (inactive). Regarding `Nc1c(C(=O)N/N=C/c2cccnc2)oc2nc(-c3ccccc3)cc(-c3ccco3)c12`, the IC50 is > 79 µM (inactive). Take `NC(=O)c1cc2ccccc2o/c1=N\NC(=O)c1ccc(F)cc1`: the IC50 is > 79 µM (inactive). Regarding `COc1cc(-c2cc(NC=O)c3ncc(-c4ccc(C(C)=O)cc4)n3c2)cc(OC)c1OC`, the IC50 is > 79 µM (inactive). Consider `COc1cccc(-c2cnc3c(NC=O)cc(-c4cc(OC)c(OC)c(OC)c4)cn23)c1`, for which the IC50 is > 79 µM (inactive).

Turning to `COC(=O)c1ccc(N)c(N=CC2=C(O)CC(C)(C)CC2=O)c1`, the IC50 is > 79 µM (inactive). For the compound `COC(=O)c1cc2c(-c3ccccc3)cc3ccccn3c-2c1C(=O)OC`, the IC50 is > 79 µM (inactive). On to `Cc1nn(-c2ccccc2)c(N2CCCC2)c1/C=N/NC(=O)c1cc(-c2ccccn2)nc2ccccc12`, for which the IC50 was 19.5 µM.
